Measured values: patent publication US9884063B2, “Amido-substituted azole compounds” (Bayer Pharma Aktiengesellschaft, priority 2014, dated 2018)

target: T1, TNKS2 (Homo sapiens, UniProt Q9H2K2); experiment: Modified TNKS2 Assay 3 (BPS kit #80578, biotin-NAD+, 96 well); format: biochemical; conditions: human TNKS2, BPS kit #80578, 96 well
T1 sequence (Q9H2K2 1-1166): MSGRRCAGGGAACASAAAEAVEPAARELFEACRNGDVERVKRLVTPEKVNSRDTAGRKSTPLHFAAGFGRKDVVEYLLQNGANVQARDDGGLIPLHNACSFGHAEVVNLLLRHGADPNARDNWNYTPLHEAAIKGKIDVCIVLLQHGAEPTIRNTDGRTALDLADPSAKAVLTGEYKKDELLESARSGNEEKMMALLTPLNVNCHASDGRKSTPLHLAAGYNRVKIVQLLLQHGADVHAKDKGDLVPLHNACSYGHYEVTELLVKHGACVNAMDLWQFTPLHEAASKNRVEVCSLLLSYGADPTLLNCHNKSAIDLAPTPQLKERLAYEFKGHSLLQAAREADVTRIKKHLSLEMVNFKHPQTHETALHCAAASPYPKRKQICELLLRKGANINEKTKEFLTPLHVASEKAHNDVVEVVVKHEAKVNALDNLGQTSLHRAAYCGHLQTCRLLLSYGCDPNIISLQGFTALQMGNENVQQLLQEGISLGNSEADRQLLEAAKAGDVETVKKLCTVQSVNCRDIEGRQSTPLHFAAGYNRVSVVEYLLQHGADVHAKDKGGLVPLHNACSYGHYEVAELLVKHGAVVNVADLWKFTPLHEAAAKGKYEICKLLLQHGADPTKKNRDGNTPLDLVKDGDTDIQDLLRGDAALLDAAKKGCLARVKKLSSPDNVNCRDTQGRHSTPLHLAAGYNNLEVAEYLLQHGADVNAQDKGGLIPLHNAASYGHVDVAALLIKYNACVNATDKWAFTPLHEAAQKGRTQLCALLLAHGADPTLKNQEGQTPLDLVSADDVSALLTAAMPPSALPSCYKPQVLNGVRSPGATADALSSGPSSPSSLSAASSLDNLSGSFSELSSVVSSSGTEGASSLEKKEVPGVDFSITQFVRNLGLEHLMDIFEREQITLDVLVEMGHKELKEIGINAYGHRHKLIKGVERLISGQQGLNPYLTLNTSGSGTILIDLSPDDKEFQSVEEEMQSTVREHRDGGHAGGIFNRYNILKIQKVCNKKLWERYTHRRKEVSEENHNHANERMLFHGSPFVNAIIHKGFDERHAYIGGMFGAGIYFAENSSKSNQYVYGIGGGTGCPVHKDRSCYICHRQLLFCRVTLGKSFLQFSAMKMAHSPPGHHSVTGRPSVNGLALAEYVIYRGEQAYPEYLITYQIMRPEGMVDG
Summary of the method: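 Commercial kit assay measuring TNKS2-catalysed incorporation of biotin-labelled NAD+ into a protein substrate, detected by streptavidin-HRP chemiluminescence. Run per manufacturer's protocol; IC50 is the concentration halving the normalised signal.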

IC50 [nM] | SMILES
10 | O=C(Nc1ccc(NC(=O)c2[nH]cnc2C(=O)NC2CC2)cc1)c1cc(F)c(F)cc1Cl [Example 51, N^5-{4-[(2-chloro-4,5-difluorobenzoyl)amino]phenyl}-N^4-cyclopropyl-1H-imidazole-4,5-dicarboxamide]
10 | CNC(=O)c1nc[nH]c1C(=O)Nc1ccc(NC(=O)c2ccc(S(C)(=O)=O)cc2Cl)cc1 [Example 55, N^5-(4-{[2-chloro-4-(methylsulfonyl)benzoyl]amino}phenyl)-N^4-methyl-1H-imidazole-4,5-dicarboxamide]
< 0.5 | C[C@@H]1CCCCN1CCNC(=O)c1[nH]cnc1C(=O)Nc1ccc(NC(=O)c2ccc(F)cc2Cl)cc1 [Example 267, N^4-{4-[(2-chloro-4-fluorobenzoyl)amino]phenyl}-N^5-{2-[(2R)-2-methylpiperidin-1-yl]ethyl}-1H-imidazole-4,5-dicarboxamide]
250 | O=C(Nc1ccc(NC(=O)c2[nH]cnc2C(=O)N2CC3(COC3)C2)cc1)c1cc(F)c(F)cc1Cl [Example 52, N-{4-[(2-chloro-4,5-difluorobenzoyl)amino]phenyl}-4-(2-oxa-6-azaspiro[3.3]hept-6-ylcarbonyl)-1H-imidazole-5-carboxamide]
3 | CNC(=O)c1nc[nH]c1C(=O)Nc1ccc(NC(=O)c2ccc(F)cc2I)cc1 [Example 61, N^5-{4-[(4-fluoro-2-iodobenzoyl)amino]phenyl}-N^4-methyl-1H-imidazole-4,5-dicarboxamide]
10 | CC(CN1CCOCC1)NC(=O)c1[nH]cnc1C(=O)Nc1ccc(NC(=O)c2ccc(F)cc2Cl)cc1 (single isomer, unassigned; enantiomer 2) [Example 270, N^4-{4-[(2-chloro-4-fluorobenzoyl)amino]phenyl}-N^5-[1-(morpholin-4-yl)propan-2-yl]-1H-imidazole-4,5-dicarboxamide (enantiomer 2)]
60 | CNC(=O)c1nc[nH]c1C(=O)Nc1ccc(NC(=O)c2ccc(F)cc2Br)cc1 [Example 56, N^5-{4-[(2-bromo-4-fluorobenzoyl)amino]phenyl}-N^4-methyl-1H-imidazole-4,5-dicarboxamide]
5 | Cc1nc(C(=O)Nc2ccc(NC(=O)c3ccc(F)cc3Cl)cc2)c(C(=O)NCCN2CCCCC2)[nH]1 [Example 67, N^4-{4-[(2-chloro-4-fluorobenzoyl)amino]phenyl}-2-methyl-N^5-[2-(piperidin-1-yl)ethyl]-1H-imidazole-4,5-dicarboxamide]
10 | CN(C)CCNC(=O)c1nc[nH]c1C(=O)Nc1ccc(NC(=O)c2ccc(F)cc2Cl)cc1 [Example 22, N^4-{4-[(2-chloro-4-fluorobenzoyl)amino]phenyl}-N^5-[2-(dimethylamino)ethyl]-1H-imidazole-4,5-dicarboxamide]
1 | C[C@@H]1CCCN(CCNC(=O)c2[nH]cnc2C(=O)Nc2ccc(NC(=O)c3ccc(F)cc3Cl)cc2)C1 [Example 278, N^4-{4-[(2-chloro-4-fluorobenzoyl)amino]phenyl}-N^5-{2-[(3R)-3-methylpiperidin-1-yl]ethyl}-1H-imidazole-4,5-dicarboxamide]

SMILES | IC50 [nM]
O=C(Nc1ccc(NC(=O)c2[nH]cnc2C(=O)NCCN2CCCCC2)cc1)c1ccc(F)cc1Cl [Example 32, N^4-{4-[(2-chloro-4-fluorobenzoyl)amino]phenyl}-N^5-[2-(piperidin-1-yl)ethyl]-1H-imidazole-4,5-dicarboxamide] | 1
